Data set [1] deals with Musca domestica (housefly). The data set can be described thus: Musca domestica (housefly); continuous contact action. The class given is in vivo. The conditions noted are these: continuous contact in Petri dish, counted after 24 hours, application rate 0.1 ppm. The method, then:
Both the tops and bottoms of Petri dishes 10 cm in diameter were lined with a total of 1 ml of acetonic solutions of the active ingredients. After the solvent had evaporated (about 30 mins.), 10 files and absorbent cotton steeped in water were introduced into each dish and the dishes closed. The flies in supine position were counted after 24 hours.
If a kill rate of 80 to 100% occurs at a concentration of 0.01 mg/dish, the test is continued with falling concentrations.

The test system of data set [2] is Plutella maculipennis (diamondback moth). The data set can be described thus: Plutella maculipennis (diamondback moth); ingestion-inhibiting action. The class given is in vivo. The conditions noted are these: Plutella maculipennis 4th-stage caterpillars on dipped kohlrabi leaves, after 48 hours; application rate 400 ppm. The procedure:
Young kohlrabi leaves are dipped for 3 seconds into aqueous solutions of the candidate compounds, and then placed on a round filter paper 9 cm in diameter which has been moistened with 0.5 ml of water. The filter paper is then placed in a Petri dish 10 cm in diameter. 10 caterpillars in the 4th larval stage are then placed on each leaf and the Petri dish is closed. Ingestion inhibition is determined in % after 48 hours.

As for `COC=C(C(=O)OC)c1ccccc1CON=C(C)c1cccc(C(F)(F)F)c1` [compound 705], the values for the Mortality in % in data set [1] and in data set [2] were 100% and 80%, respectively.

On to `COC=C(C(=O)OC)c1ccccc1CON=C(C)c1ccc(C(F)(F)F)cc1` [compound 706], for which the Mortality in % in data set [1] was found to be 100%; in data set [2] it was 80%.

(Values after patent USRE37839E1, “O-benzyloxime ethers and crop protection agents containing these compounds” (BASF Aktiengesellschaft, priority 1990, dated 2002).)
